According to patent publication US10420810B2, “Traditional Chinese medicine composition for the treatment of diabetic retinopathy” (priority 2015, dated 2019):

Columns and labels:
Format in all cases: in vivo, rat
[1] = system: retinal capillaries; assay: Microscopic observation of retinal vascular digest preparation, STZ diabetic rats (Experiment 3); conditions: 9 months, PAS staining, result in words
Procedure: (§1) 48 SPF-grade SD rats, male, 6 weeks old, (220±20) g in weight, were purchased from Huafukang Biotechnology Co., Ltd. After one-week's adaptive feeding, the rats were randomized into the modeling group (36 rats) and normal group (12 rats). The rats were fasted for 12 hours before modeling and given 1% STZ solution according to the body weight of 60 mg/kg via one intraperitoneal injection to induce experiment diabetic rat models. Rats in the normal group were injected with normal saline of the same volume. Blood glucose was monitored 72 hours later, blood was collected via caudal vein, and the modeling was deemed as successful when the blood glucose was ≥16.7 mmol/L for 3 consecutive days; after successful modeling, rats were randomized into the model group (12 rats), TCM composition experiment group (abbreviated as the experiment group, containing 12 rats) and Doxium group (abbreviated as the control group, containing 12 rats). Rats in the experiment group and control group were dosed on the next day after successful modeling. The administered dose of the experiment group was 10 ml/(kg·d) and that of the control group was 250 mg/(kg·d), with the Doxium powders dissolved in 2 mL distilled water. […] In the experiment period, all the rats were given food and drinking water at regular times each day; the changes in the body weight and blood glucose of rats were monitored monthly. […]

[2] = system: retina; assay: HE staining of retinal paraffin sections, STZ diabetic rats (Experiment 3); conditions: 9 months, result in words
Procedure: as §1

[3] = system: VEGF; assay: Immunohistochemistry of retinal paraffin sections: whole-layer retinal VEGF expression (Experiment 3); conditions: STZ diabetic rats, 9 months, x ± s
Procedure: as §1

[4] = system: retina; assay: Retinal electron microscopy, STZ diabetic rats (Experiment 3); conditions: 9 months, result in words
Procedure: as §1

[5] = system: iris vessels of diabetic rats; assay: Iris blood flow velocity in STZ diabetic rats; conditions: x ± s
Excerpt: (§2) The modeling was the same as that of Experiment 2. After successful modeling, diabetic rats were randomized into the model group (20 rats), experiment group (30 rats, given the TCM composition prepared according to Experiment 1), control group (Doxium group, 20 rats) and normal group (12 rats). The experiment lasted 300 days. 1.2 Observation Methods and Outcome Measures: The iris blood flow velocity, diameter of iris vessels, density of iris microvessels, endothelial structure of iris microvessels, permeability of iris microvessels and iris unit area blood perfusion volume were observed by the iris vascular perfusion scan and iris fluorescein angiography.

[6] = system: iris vessels of diabetic rats; assay: Diameter of iris vessels in STZ diabetic rats; conditions: 300 days, result in words
Excerpt: as §2

[7] = system: iris vessels of diabetic rats; assay: Iris unit area blood perfusion volume (laser Doppler scanning) in STZ diabetic rats; conditions: x ± s
Excerpt: as §2

O=S(=O)(O)c1cc(O)ccc1O [Doxium]
Microscopic observation of retinal vascular digest preparation [1]: retinal microvascular changes were significantly prevented or delayed | Light microscopic observation of HE-stained retinal paraffin sections [2]: the retinal net structure was loose, internal and external granular layers were arranged in a disordered manner, capillaries were dilated, and interstitial edema can be noted | Whole-layer Retinal VEGF Expression (Gray-scale values), Mean Optical Density Value [3]: 0.43 ± 0.09 | Retinal ultrastructure observation (electron microscopy) [4]: the vascular walls of retinal capillaries were still regular and smooth, basement membranes were thickened | Blood Flow Velocity Index, Post-treatment ([5]; 300 days): 3.25 ± 0.81 min | Blood Flow Velocity Index, Pre-treatment ([5]; baseline): 1.07 ± 0.07 min | Diameter of iris vessels compared to the model group [6]: no statistically significant difference between the Doxium group and model group | Iris Unit Area Blood Perfusion Volume, Post-treatment ([7]; 300 days): 133.71 ± 6.89 | Iris Unit Area Blood Perfusion Volume, Pre-treatment ([7]; baseline): 607.45 ± 194.19
